# Data reported in paper PMC5653977 (EMBO Molecular Medicine, 2017).
# Columns and labels:
# [1] = tested on: pyramidal neurons of the prefrontal cortex; assay: Spontaneous inhibitory postsynaptic currents (sIPSCs) in acute prefrontal cortex slices; format: cell-based, mouse; settings: 10 μM, bath application
# Experimental: (§1) 300‐μm‐thick transverse slices comprising the medial prefrontal cortex (mPFC) area were prepared from 7‐ to 8‐week‐old C57Bl/6 mice as described previously (Teng et al, 2013; Agarwal et al, 2014). All recordings were performed in cortical layer V projection neurons. The bath solution consisted of oxygenated artificial cerebrospinal fluid (ACSF) containing NaCl 126 mM, KCl 3 mM, NaH2PO4 1.25 mM, MgSO4 1 mM, NaHCO3 26 mM, CaCl2 2 mM, glucose 10 mM, and the pH 7.2 adjusted with NaOH. Spontaneous GABAergic inhibitory postsynaptic currents (sIPSC) and evoked GABAergic inhibitory postsynaptic currents (eIPSC) were recorded at a holding potential of −70 mV in the presence of 6‐cyano‐7‐nitroquinoxaline‐2,3‐dione (CNQX, 10 μM) and DL‐2‐amino‐5‐phosphonovaleric acid (D‐APV, 50 μM). Glass pipettes were filled with the solution containing: KCl 140 mM, MgCl2 2 mM, CaCl2 1 mM, Na2GTP 0.5 mM, Na2ATP 4 mM, EGTA 10 mM, HEPES 10 mM. Patches with a series resistance of > 25 MΩ, a membrane resistance of < 0.8 GΩ, or leak currents of > 150 pA were excluded. Biphasic rectangular electric pulses (10 ms, 100–300 μA) were applied to layer I of the prelimbic area of mPFC through another glass pipette filled with ACSF. Synaptic currents were acquired at 20 kHz and filtered at 6 kHz, with a Digidata 1440 ADC‐converter coupled to a Multiclamp 700B amplifier (Molecular Devices, USA). Data acquisition was performed using pClamp10 software (Molecular Devices). MiniAnalysis 6.0.9 (Synaptosoft Inc., Decatur, USA) and pClamp10.1 were used for amplitude and frequency analysis of sIPSCs and eIPSCs, respectively. Paired Student's t‐test was used for statistical analysis.
# [2] = tested on: pyramidal neurons of the prefrontal cortex; assay: Evoked inhibitory postsynaptic currents (eIPSCs) in acute prefrontal cortex slices; format: cell-based, mouse; settings: 5 μM in the presence of canrenone (10 μM)
# Experimental: as §1, with “Data acquisition was performed using pClamp10 software (Molecular Devices). MiniAnalysis 6.0.9 (Synaptosoft Inc., Decatur, USA) and pClamp10.1 were used for amplitude and frequency analysis of sIPSCs and eIPSCs, respectively. Paired Student's t‐test was used for statistical analysis.” left out
# Nrg1-tg and wt mice [3] = assay: Open field test; format: in vivo, mouse; settings: 50 mg/kg s.c. daily
# Experimental: (§2) For behavioral testing, age‐matched male mice (8–16 weeks) on C57Bl/6 background that constitutively overexpress the 2xHA‐tagged Nrg1 type III β1a isoform (Nrg1‐tg) under the control of the mouse Thy1.2 promoter (Velanac et al, 2012) and their wild‐type (wt) littermates as controls were used. Animals were group‐housed in the same ventilated sound‐attenuated rooms under a 12‐h light/12‐h dark schedule (lights on at 8:00 am) at an ambient temperature of 21°C with food and water available ad libitum. One week prior to experiments, mice were separated into single cages and habituated to the experimental rooms. To minimize the influence of the circadian rhythm on drug actions, the treatment groups were analyzed at balanced time points during the light phase. […] All animal experiments were conducted in accordance with NIH principles of laboratory animal care and were approved by the Government of Lower Saxony, Germany, in accordance with the German Animal Protection Law.
# (§3) Treatment was continued throughout the behavioral analysis period. To avoid injection‐induced stress prior to behavioral testing, mice were injected in the afternoon, after the entire cohort has completed the behavioral paradigm.
# Spontaneous locomotor activity was verified in the open‐field test using a Plexiglas box (45 × 45 × 55 cm). The same test arena was modified with a floor insert containing 16 symmetrically allocated holes for the hole board test. During a 10‐min testing session, mouse behavior was monitored by infrared sensors and recorded by the ActiMot software (TSE, Bad Homburg, Germany). Levels of urination (scored in events) and defecation (scored as feci in events) were determined manually during the open‐field test.
# Nrg1-tg and wt mice [4] = assay: Y-maze test; format: in vivo, mouse; settings: 50 mg/kg s.c. daily
# Experimental: as §2, §3
# [5] = set-up: method as in Wu et al, 2012; settings: ref Wu et al, 2012; cited from earlier work
# ERBB4_1-685 dimers = target: T1, ERBB4_1-685 dimers (Homo sapiens, UniProt Q15303); assay: Truncated ERBB4 (amino acids 1-685) dimerization split TEV assay; settings: PC12 cells, 10 ng/ml EGFld
# T1 sequence (Q15303 26-685) 1: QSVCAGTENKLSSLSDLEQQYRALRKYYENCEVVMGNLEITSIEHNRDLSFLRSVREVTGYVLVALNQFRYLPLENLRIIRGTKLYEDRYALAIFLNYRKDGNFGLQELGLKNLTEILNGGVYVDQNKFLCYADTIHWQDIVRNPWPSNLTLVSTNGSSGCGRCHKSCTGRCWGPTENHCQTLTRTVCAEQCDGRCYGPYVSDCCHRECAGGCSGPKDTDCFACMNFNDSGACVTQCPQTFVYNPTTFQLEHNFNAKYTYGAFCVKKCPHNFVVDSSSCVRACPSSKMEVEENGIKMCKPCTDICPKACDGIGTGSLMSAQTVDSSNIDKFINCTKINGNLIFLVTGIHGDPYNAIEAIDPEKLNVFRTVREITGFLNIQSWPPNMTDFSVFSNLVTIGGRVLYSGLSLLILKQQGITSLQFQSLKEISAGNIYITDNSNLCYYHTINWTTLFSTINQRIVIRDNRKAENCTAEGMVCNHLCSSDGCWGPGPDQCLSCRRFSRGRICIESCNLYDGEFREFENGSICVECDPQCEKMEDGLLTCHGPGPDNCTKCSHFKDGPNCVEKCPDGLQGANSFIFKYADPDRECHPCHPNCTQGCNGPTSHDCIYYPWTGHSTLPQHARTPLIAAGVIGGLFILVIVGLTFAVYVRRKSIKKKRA
# T1 sequence (Q15303 26-685) 2: T1 sequence (Q15303 26-685) 1
# Experimental: Individually re‐screened candidates were validated using a dose–response assay. PC12 cells were batch‐transfected as described in the section “Transfection of cells”, manually plated, and incubated for 24 h at 37°C and 5% CO2. Candidate small molecules were prepared in a series of dilutions using DMSO as diluent and ranging from 0.0001 to 100 μM at final concentrations, thus covering at least five orders of magnitude. Candidate dilutions were added, followed by the addition of 10,000 Nrg1‐expressing cells in 100 μl volume 30 min later. Cells were lysed in 40 μl Passive Lysis Buffer and analyzed in a Dual Luciferase Assay. Data were analyzed in Excel and GraphPad Prism. For single‐culture assays that used EGFld as stimulus, 100 μl assay medium containing EGFld (f.c. 10 ng/ml) was administered. […] Dose–response assays were run in six replicates per concentration and repeated at least two times. Data are shown as mean, and error bars represent SEM.
structure (smiles),measurement,setting,value
CC(=O)S[C@@H]1CC2=CC(=O)CC[C@]2(C)[C@H]2CC[C@@]3(C)[C@@H](CC[C@@]34CCC(=O)O4)[C@H]12 [Spironolactone],sIPSC amplitude,[1],increase
same,sIPSC frequency,[1],increase
same,eIPSC amplitude,[2],significantly increased
same,defecation in the open-field test,Nrg1-tg and wt mice [3],no effect of treatment observed
same,time in the center of the open-field arena,Nrg1-tg and wt mice [3],did not influence this parameter
same,urination in the open-field test,Nrg1-tg and wt mice [3],without effect of treatment
same,locomotor hyperactivity (distance in the open-field arena),Nrg1-tg and wt mice [3]; Nrg1-tg mice,reverted
same,arm choices in the Y-maze (activity),Nrg1-tg and wt mice [4],There was no effect of treatment
same,working memory (alterations in the Y-maze),Nrg1-tg and wt mice [4]; Nrg1-tg mice,rescued these deficits
same,motivation and curiosity in mice,[5],increase motivation and curiosity
same,inhibitory effect on dimerization of truncated ERBB4,ERBB4_1-685 dimers,no inhibitory effect
